Target: T1, SMYD2 (Homo sapiens, UniProt Q9NRG4)
T1 construct: Full length SMYD2 (NP 064582.2) was cloned; His6 (N, cleaved yes); FLAG (N); made in house; host or cells: Sf9 insect cells
Experiment: SMYD2 Biochemical Assay (3H-SAM, biotinylated peptide substrate, Flashplate)
Conditions: IC50 values are an average of n = 1 to n = 50; read-out: SMYD2 Biochem IC50 (μM)*
Outline: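 Full-length His/FLAG-tagged SMYD2 expressed in Sf9 cells with tag cleaved, 1.5 nM, pre-incubated 30 min at room temperature with compound, then 10 nM 3H-SAM and 60 nM biotinylated peptide added. Buffer 20 mM Bicine pH 7.6, 1 mM TCEP, 0.005% BSG, 0.002% Tween20, 2% DMSO. Stopped with 600 uM cold SAM; 3H-peptide captured on streptavidin Flashplate; IC50 by curve fit.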

T1 sequence (Q9NRG4 whole entry): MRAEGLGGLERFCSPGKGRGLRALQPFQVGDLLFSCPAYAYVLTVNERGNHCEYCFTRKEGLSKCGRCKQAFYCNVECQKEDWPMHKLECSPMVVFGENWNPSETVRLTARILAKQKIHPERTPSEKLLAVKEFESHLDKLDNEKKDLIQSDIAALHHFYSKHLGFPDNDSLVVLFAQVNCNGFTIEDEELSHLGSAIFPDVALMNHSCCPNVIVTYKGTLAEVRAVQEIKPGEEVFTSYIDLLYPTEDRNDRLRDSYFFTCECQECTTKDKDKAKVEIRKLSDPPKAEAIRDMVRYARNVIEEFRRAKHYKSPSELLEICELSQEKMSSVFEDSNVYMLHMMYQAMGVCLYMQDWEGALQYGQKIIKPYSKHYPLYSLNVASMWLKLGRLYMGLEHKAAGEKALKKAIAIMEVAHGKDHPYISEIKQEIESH

Row | IC50 [µM] | SMILES
1 | > 50 | C[C@@H]1CN(CC2CCN(C)CC2)C[C@H]1NC(=O)c1cc(C2CC2)on1 (racemic) [compound 158, (±)-trans-5-cyclopropyl-N-[4-methyl-1-[(1-methylpiperidin-4-yl)methyl]pyrrolidin-3-yl]-1,2-oxazole-3-carboxamide]
2 | > 50 | C[C@@H]1CN(Cc2ccnc3ccccc23)C[C@H]1NC(=O)c1cc(C2CC2)on1 (racemic) [compound 159, (±)-trans-5-cyclopropyl-N-[4-methyl-1-(quinolin-4-ylmethyl)pyrrolidin-3-yl]-1,2-oxazole-3-carboxamide]
3 | > 50 | C[C@@H]1CN(Cc2c[nH]c3ccccc23)C[C@H]1NC(=O)c1cc(C2CC2)on1 (racemic) [compound 160, (±)-trans-5-cyclopropyl-N-[1-(1H-indol-3-ylmethyl)-4-methyl-pyrrolidin-3-yl]-1,2-oxazole-3-carboxamide]
4 | 1.42 | C[C@H]1CN(CC2CC2)C[C@H]1NC(=O)c1cc(C2CC2)on1 (racemic) [compound 162, (±)-cis-5-cyclopropyl-N-[1-(cyclopropylmethyl)-4-methylpyrrolidin-3-yl]-1,2-oxazole-3-carboxamide]
5 | > 50 | C[C@@H]1CN(CC2CCOCC2)C[C@H]1NC(=O)c1cc(C2CC2)on1 (racemic) [compound 170, (±)-trans-5-cyclopropyl-N-[4-methyl-1-(oxan-4-ylmethyl)pyrrolidin-3-yl]-1,2-oxazole-3-carboxamide]
6 | > 50 | C[C@@H]1CN(Cc2ccc(-c3cc(Cl)ccc3Cl)o2)C[C@H]1NC(=O)c1cc(C2CC2)on1 (racemic) [compound 171, (±)-trans-5-cyclopropyl-N-[1-{[5-(2,5-dichlorophenyl)furan-2-yl]methyl}-4-methylpyrrolidin-3-yl]-1,2-oxazole-3-carboxamide]
7 | 29.5 | C[C@@H]1CN(Cc2ccc(N3CCCC3)cc2)C[C@H]1NC(=O)c1cc(C2CC2)on1 (racemic) [compound 172, (±)-trans-5-cyclopropyl-N-[4-methyl-1-{[4-(pyrrolidin-1-yl)phenyl]methyl}pyrrolidin-3-yl]-1,2-oxazole-3-carboxamide]
8 | > 50 | Cc1nc[nH]c1CN1C[C@@H](C)[C@H](NC(=O)c2cc(C3CC3)on2)C1 (racemic) [compound 173, (±)-trans-5-cyclopropyl-N-[4-methyl-1-[(4-methyl-1H-imidazol-5-yl)methyl]pyrrolidin-3-yl]-1,2-oxazole-3-carboxamide]
9 | > 50 | COc1ncc(CN2C[C@@H](C)[C@H](NC(=O)c3cc(C4CC4)on3)C2)cc1Br (racemic) [compound 174, (±)-trans-N-[1-[(5-bromo-6-methoxypyridin-3-yl)methyl]-4-methylpyrrolidin-3-yl]-5-cyclopropyl-1,2-oxazole-3-carboxamide]
10 | 3.95 | C[C@H]1CN(CC2CCOCC2)C[C@H]1NC(=O)c1cc(C2CC2)on1 (racemic) [compound 175, (±)-cis-5-cyclopropyl-N-[4-methyl-1-(oxan-4-ylmethyl)pyrrolidin-3-yl]-1,2-oxazole-3-carboxamide]
11 | > 50 | C[C@@H]1CN(Cc2cc([N+](=O)[O-])ccc2F)C[C@H]1NC(=O)c1cc(C2CC2)on1 (racemic) [compound 179, (±)-trans-5-cyclopropyl-N-[1-[(2-fluoro-5-nitrophenyl)methyl]-4-methylpyrrolidin-3-yl]-1,2-oxazole-3-carboxamide]
12 | 42.5 | C[C@@H]1CN(Cc2c[nH]cn2)C[C@H]1NC(=O)c1cc(C2CC2)on1 (racemic) [compound 180, (±)-trans-5-cyclopropyl-N-[1-(1H-imidazol-4-ylmethyl)-4-methylpyrrolidin-3-yl]-1,2-oxazole-3-carboxamide]
13 | > 50 | COc1cc(CN2C[C@@H](C)[C@H](NC(=O)c3cc(C4CC4)on3)C2)cc(OC)c1 (racemic) [compound 181, (±)-trans-5-cyclopropyl-N-[1-[(3,5-dimethoxy-phenyl)methyl]-4-methylpyrrolidin-3-yl]-1,2-oxazole-3-carboxamide]
14 | > 50 | Cc1nn(C)cc1CN1C[C@@H](C)[C@H](NC(=O)c2cc(C3CC3)on2)C1 (racemic) [compound 183, (±)-trans-5-cyclopropyl-N-[1-[(1,3-dimethyl-1H-pyrazol-4-yl)methyl]-4-methylpyrrolidin-3-yl]-1,2-oxazole-3-carboxamide]
15 | > 50 | C[C@@H]1CN(Cc2ccnn2C)C[C@H]1NC(=O)c1cc(C2CC2)on1 (racemic) [compound 184, (±)-trans-5-cyclopropyl-N-[4-methyl-1-[(1-methyl-1H-pyrazol-5-yl)methyl]pyrrolidin-3-yl]-1,2-oxazole-3-carboxamide]
16 | 4.92 | C[C@H]1CN(CC2CCCOC2)C[C@H]1NC(=O)c1cc(C2CC2)on1 (mixture of isomers) [compound 185, (±)-cis-5-cyclopropyl-N-[4-methyl-1-(oxan-3-ylmethyl)pyrrolidin-3-yl]-1,2-oxazole-3-carboxamide]
17 | 6.86 | C[C@H]1CN(Cc2c[nH]c3ccccc23)C[C@H]1NC(=O)c1cc(C2CC2)on1 (racemic) [compound 194, (±)-cis-5-cyclopropyl-N-[1-(1H-indol-3-ylmethyl)-4-methyl-pyrrolidin-3-yl]-1,2-oxazole-3-carboxamide]
18 | 33.4 | C[C@H]1CN(Cc2cc3ccccc3s2)C[C@H]1NC(=O)c1cc(C2CC2)on1 (racemic) [compound 195, (±)-cis-N-[1-(1-benzothiophen-2-ylmethyl)-4-methyl-pyrrolidin-3-yl]-5-cyclopropyl-1,2-oxazole-3-carboxamide]

Further lines, the compound ahead of its results:

Row | SMILES | IC50 [µM]
19 | CC[C@H]1CN(C)C[C@@H]1NC(=O)c1cc(C2CC2)on1 (racemic) [compound 157, (±)-trans-5-cyclopropyl-N-[4-ethyl-1-methyl-pyrrolidin-3-yl]-1,2-oxazole-3-carboxamide] | 45.3
20 | C[C@@H]1CN(CC2CCNC2)C[C@H]1NC(=O)c1cc(C2CC2)on1 (mixture of isomers) [compound 161, (±)-trans-5-cyclopropyl-N-[4-methyl-1-(pyrrolidin-3-ylmethyl)pyrrolidin-3-yl]-1,2-oxazole-3-carboxamide] | > 50
21 | C[C@H]1CN(CC2CCNC2)C[C@H]1NC(=O)c1cc(C2CC2)on1 (mixture of isomers) [compound 163, (±)-cis-5-cyclopropyl-N-[4-methyl-1-(pyrrolidin-3-ylmethyl)pyrrolidin-3-yl]-1,2-oxazole-3-carboxamide] | > 50
22 | C[C@H]1CN(CC2CCNCC2)C[C@H]1NC(=O)c1cc(C2CC2)on1 (racemic) [compound 164, (±)-cis-5-cyclopropyl-N-[4-methyl-1-(piperidin-4-ylmethyl)pyrrolidin-3-yl]-1,2-oxazole-3-carboxamide] | 4.78
23 | C[C@H]1CN(CC(C)(C)C)C[C@H]1NC(=O)c1cc(C2CC2)on1 (racemic) [compound 165, (±)-cis-5-cyclopropyl-N-[1-(2,2-dimethyl-propyl)-4-methylpyrrolidin-3-yl]-1,2-oxazole-3-carboxamide] | 11.3
24 | C[C@@H]1CN(C2CCS(=O)(=O)CC2)C[C@@H]1NC(=O)c1cc(C2CC2)on1 (racemic) [compound 166, (±)-cis-5-cyclopropyl-N-(1-(1,1-dioxido-tetrahydro-2H-thiopyran-4-yl)-4-methylpyrrolidin-3-yl)isoxazole-3-carboxamide] | 19.8
25 | C[C@H]1CN(CCC2CCN(C(=O)OC(C)(C)C)CC2)C[C@H]1NC(=O)c1cc(C2CC2)on1 (racemic) [compound 169, (±)-cis-tert-butyl 4-{2-[3-(5-cyclopropyl-1,2-oxazole-3-amido)-4-methylpyrrolidin-1-yl]ethyl}piperidine-1-carboxylate] | 6.92
26 | CC(C)[C@H]1CN(C)C[C@@H]1NC(=O)c1cc(C2CC2)on1 (racemic) [compound 177, (±)-trans-5-cyclopropyl-N-[1-methyl-4-(propan-2-yl)pyrrolidin-3-yl]-1,2-oxazole-3-carboxamide] | > 50
27 | CC(C)[C@H]1CN(C(C)C)C[C@@H]1NC(=O)c1cc(C2CC2)on1 (racemic) [compound 178, (±)-trans-N-[1,4-bis(propan-2-yl)pyrrolidin-3-yl]-5-cyclopropyl-1,2-oxazole-3-carboxamide] | > 50
28 | CC[C@H]1CN(C)C[C@H]1NC(=O)c1cc(C2CC2)on1 (racemic) [compound 187, (±)-cis-5-cyclopropyl-N-[4-ethyl-1-methyl-pyrrolidin-3-yl]-1,2-oxazole-3-carboxamide] | 18.1
29 | CC[C@H]1CN(C(C)C)C[C@H]1NC(=O)c1cc(C2CC2)on1 (racemic) [compound 188, (±)-cis-5-cyclopropyl-N-[4-ethyl-1-(propan-2-yl)pyrrolidin-3-yl]-1,2-oxazole-3-carboxamide] | 15.9
30 | CC(C)N1C[C@@H](C)[C@H](NC(=O)c2cc(C3CC3)on2)C1 (racemic) [compound 191, (±)-trans-5-cyclopropyl-N-[4-methyl-1-(propan-2-yl)pyrrolidin-3-yl]-1,2-oxazole-3-carboxamide] | 40.3
31 | CC(C)c1cc(C(=O)N[C@@H]2CN(C(C)C)C[C@H]2C)no1 (racemic) [compound 192, (±)-trans-N-[4-methyl-1-(propan-2-yl)pyrrolidin-3-yl]-5-(propan-2-yl)-1,2-oxazole-3-carboxamide] | > 50
32 | CC(C)c1cc(C(=O)N[C@@H]2CN(C(C)C)C[C@@H]2C)no1 (racemic) [compound 193, (±)-cis-N-[4-methyl-1-(propan-2-yl)pyrrolidin-3-yl]-5-(propan-2-yl)-1,2-oxazole-3-carboxamide] | 7.85
33 | CCc1nc(C)c(CN2C[C@H](C)[C@H](NC(=O)c3cc(C4CC4)on3)C2)[nH]1 (racemic) [compound 196, (±)-cis-5-cyclopropyl-N-(1-[(2-ethyl-4-methyl-1H-imidazol-5-yl)methyl]-4-methylpyrrolidin-3-yl)-1,2-oxazole-3-carboxamide] | 35.5

Source: US20170253601A1, “Substituted Pyrrolidine Compounds” (EPIZYME, INC., priority 2014, published 2017)
